The source of these data is patent publication US20060134063A1, “Agents for proliferating pancreatic beta-cells of the islets of langerhans, agents for suppressing apoptosis of said cells, and screening of candidate compounds for these agents” (priority 2000, published 2006).

In assay [1] the test system is 5'-flanking region of the rat Reg gene. As to the kind of experiment: Reg promoter/luciferase reporter assay in RINm5F cells. The format is cell-based. Here is the method:
A 2,303-bp fragment containing the 5′-flanking region of Reg gene was fused to the luciferase gene and transfected into RINm5F β-cells.
Specifically, luciferase reporter gene constructs were generated as described in Miyashita, H. et al. (1994) Biochim. Biophys. Acta, 1219, 241-243. RINm5F cells were seeded at 1×10^5 cells/well in 24-well dish. After 48 h, 3.0 μg of test plasmid and 0.2 μg of pCMV-SPORT β-gal (Life Technologies, Inc.) were transfected by lipofection (Felgner, J. H. et al. (1994) J. Biol. Chem., 269, 2550-2561) using DMRIE-C™ (Life Technologies, Inc.). After 24 h, the medium of each dish was replaced with fresh medium containing stimulants and incubated further for 24 h. Cells were harvested in 1 ml of ice-cold phosphate-buffered saline (PBS), washed twice with PBS, and extracts were prepared in extraction buffer (0.1 M potassium phosphate, pH 6.8, 1 mM DTT). The protein concentration was determined using a Coomassie reagent kit (Pierce) and bovine serum albumin as a standard. Luciferase activity was determined by a chemiluminescence substrate using a Pica Gene™ Luminescence Kit (Toyo Ink Mfg. Co, Ltd., Tokyo, Japan). β-galactosidase activity was determined using Aurora™ GAL-XE (ICN).
For orientation: A reporter such as luciferase makes a cellular process visible.

For assay [2], the system named is RINm5F cell lines, #1, #6, and #24, which stably express the Reg protein receptor. The assay can be described thus: TUNEL apoptosis assay in RINm5F cell lines #1, #6, #24 expressing Reg protein receptor. The format is cell-based, rat. To be noted: 1,000 nM Reg protein; 20 ng/ml IL-6, 100 nM dexamethasone, 10 mM nicotinamide; 24 h.
Description: Rat insulinoma RINm5F cell lines, #1, #6, and #24, which stably express Reg protein receptor (Kobayashi, S. et al. (2000) J. Biol. Chem. 275, 10723-10726) were similarly cultured as in Example 4 and 1,000 nM Reg protein and HGF at varied concentrations, 0, 2.5, and 25 ng/ml were added thereto. Twenty-four hours after the addition of Reg protein/HGF, apoptosis was measured by TUNEL method using an Apoptosis Screening kit (Wako Pure Chemical Industries Ltd., Osaka, Japan) as described in Kobayashi, S. et al. (2000) J. Biol. Chem. 275, 10723-10726.
The subject of assay [3] is Reg gene. As to the kind of experiment: RT-PCR of Reg gene expression in RINm5F cells. The format is cell-based, rat. The following applies: 24 h with stimulants. Here is the method: The Reg gene expression was analyzed by RT-PCR. The cells were harvested after 24 h of culturing in a medium supplemented with stimulants, and total RNA was prepared using cesium trifluoroacetate as described in Takasawa, S. et al. (1993) J. Biol. Chem., 268, 26052-26054. RT-PCR was performed using primers corresponding to nucleotides 23 to 43 and 572 to 593 of rat Reg mRNA (Terazono, K. et al. (1988) J. Biol. Chem., 263, 2111-2114).

The mark [4] stands for this setting: nicotinamide added to IL-6/dexamethasone.

On to `NC(=O)c1cccnc1` [nicotinamide], for which the “luciferase activity (result in words)” value in assay [1] (2,303-bp Reg 5'-flanking fragment, 24 h stimulation) is “ineffective”. In assay [1] (setting [4]), the “enhancement of IL-6/dexamethasone-induced transcription of Reg gene, "-70" construct” value is on record as “abolished” and the “enhancement of IL-6/dexamethasone-induced transcription of Reg gene, -2,303 to -81 deletions” value was “the enhancement was observed”. Also, the “apoptosis induced by Reg protein (TUNEL)” value in assay [2] is “did not”. For the same compound, the “Reg gene expression (Reg mRNA)” value in assay [3] is “no effect on Reg expression”.
